Experimental data taken from PMC12069643, “Structural insights into the selective recognition of RF-amide peptides by neuropeptide FF receptor 2” (EMBO Reports, 2025).
Like-named read-outs stand apart in the source and are kept apart here. One block for each molecule: values may come before it. Ends that are not written are not given here.

Experiments:
[1] = target: T1, human NPFFR2 (Homo sapiens, UniProt Q9Y5X5); test: GloSensor forskolin-stimulated cAMP assay, NPFFR2 wild-type; format: cell-based; details: NPFFR2 wild-type (100% DNA treated for hNPSF), HEK293T, 0.5 μM forskolin; for Emax: HEK-293T, mean of three independent experiments ± SEM; for EC50: three independent experiments
T1 construct: expressed in transfected cells; host or cells: HEK293T (pcDNA3.1 NPFFR2)
Description: Figure 1 Structural analysis and downstream signaling of NPFFR2. (A) The concentration-dependent response of various agonists on NPFFR2 is measured using a forskolin-stimulated cAMP assay. Data points represent mean values from three independent experiments (each with technical triplicate), with error bars indicating SEM (standard error of the mean). Raw data were normalized to the vehicle-treated (0%) and 0.5 μM forskolin-treated (100%) responses. […] (C) The extracellular loop 2 (ECL2, pink) and N-terminus (Nt, blue) of NPFFR2 are depicted using a cartoon model. […] Source data are available online for this figure.
(§1) HEK293T cells were seeded at a density of 6 × 10^5 cells per well in a six-well cell culture plate (SPL) and co-transfected with expression plasmids encoding GloSensor™ and each NPFFR construct, using 1 µg to 4 µg of DNA per well according to the Lipofectamine™ 2000 Transfection Reagent (Invitrogen) protocol. After 48 h of incubation under standard conditions (37 °C, 5% CO2), the cells were detached using Accutase solution (Sigma-Aldrich) and washed with PBS. The cells were then pelleted by centrifugation, resuspended in CO2-independent medium (Gibco) supplemented with Firefly D-Luciferin (0.5 mg/ml, NanoLight), and distributed into a 96-well white plate (SPL). After a 2-hour incubation, serially diluted ligands and 0.5 μM forskolin were added to each well to detect ligand-induced signaling. Luminescence signals were measured using a Mithras LB940 instrument (Berthold) with a measurement time of 1 s per well.
(§2) Data from the GloSensor^TM cAMP signaling assays were analyzed using GraphPad Prism with a three-parameter logistic model to fit concentration-response curves for both wild-type (WT) and mutant receptors. Mutant expression levels and DNA amounts were adjusted to match WT conditions. ΔpEC50 values were calculated by subtracting the log EC50 of the WT receptor from that of each mutant. Results are presented as mean ± SEM from three independent biological replicates, each performed in duplicate or more. Error bars represent the SEM. Statistical significance was assessed using one-way ANOVA, followed by Dunnett’s tests comparisons to the WT receptor. Significance levels were reported as follows: ns (not significant, P > 0.05); *P < 0.05; **P < 0.01; ***P < 0.001.

[2] = target: T2, human NPFFR1 (Homo sapiens, UniProt Q9GZQ6); test: GloSensor forskolin-stimulated cAMP assay, NPFFR1 wild-type; format: cell-based; details: for Emax: HEK-293T, read-out: Emax ± SEM
T2 construct: expressed in transfected cells; host or cells: HEK293T (pcDNA3.1 NPFFR1)
Description: Figure 4 RF-amide ligand selectivity of NPFFR2 and NPFFR1. […] Key residues at the fifth and sixth positions from the C-terminus, are highlighted in bold. […] (B) The concentration-dependent response of various agonists on NPFFR1 was measured using a forskolin-stimulated cAMP assay. Data points represent the mean values from three independent experiments (each with technical triplicate), with error bars indicating SEM. Raw data were normalized to the vehicle-treated (0%) and 0.5 μM forskolin-treated (100%) responses. (C) Structural comparison between the binding modes of hNPSF to NPFFR2 and GnIH to NPFFR1. An AlphaFold2 prediction model of the GnIH–NPFFR1 complex was generated using the hNPSF–NPFFR2 complex structure as a template. The hydrophobicity of NPFFRs is shown with surface representation, where purple indicates hydrophilic regions and bronze indicates hydrophobic regions. […] (D) The cAMP response to the ligands hNPSF and GnIH was measured for both wild-type NPFFR1 and a mutant form of NPFFR1 using a forskolin-stimulated cAMP assay. […] Symbols represent mean values from three independent experiments, each conducted in technical triplicates, with error bars indicating SEM. Responses were normalized to vehicle-treated controls (0%) and 0.5 μM forskolin-treated controls (100%). Source data are available online for this figure.
as §1, §2

[3] = target: NPFFR1 mutant (Q37^NtL, I293^6.58S, and T307^7.31N) (UniProt Q9GZQ6)
[4] = target: T3, NPFFR1-chimera (Q37^NtL/I293^6.58S/T307^7.31N) (Homo sapiens, UniProt Q9GZQ6, I293S/Q37L/T307N); test: GloSensor forskolin-stimulated cAMP assay, NPFFR1 triple mutant (chimera Q37NtL/I2936.58S/T3077.31N); format: cell-based; details: HEK293T, 0.5 μM forskolin, three independent experiments
T3 construct: expressed in transfected cells; host or cells: HEK293T
Description: Figure 4 RF-amide ligand selectivity of NPFFR2 and NPFFR1. (A) Sequence alignment between human NPFFs and RFRPs, the endogenous ligands of NPFFRs, which share PXRF-NH2 motif at their C-terminus (shown in green letters). Key residues at the fifth and sixth positions from the C-terminus, are highlighted in bold. […] (B) The concentration-dependent response of various agonists on NPFFR1 was measured using a forskolin-stimulated cAMP assay. Data points represent the mean values from three independent experiments (each with technical triplicate), with error bars indicating SEM. Raw data were normalized to the vehicle-treated (0%) and 0.5 μM forskolin-treated (100%) responses. (C) Structural comparison between the binding modes of hNPSF to NPFFR2 and GnIH to NPFFR1. An AlphaFold2 prediction model of the GnIH–NPFFR1 complex was generated using the hNPSF–NPFFR2 complex structure as a template. The hydrophobicity of NPFFRs is shown with surface representation, where purple indicates hydrophilic regions and bronze indicates hydrophobic regions. […] (D) The cAMP response to the ligands hNPSF and GnIH was measured for both wild-type NPFFR1 and a mutant form of NPFFR1 using a forskolin-stimulated cAMP assay. […] Symbols represent mean values from three independent experiments, each conducted in technical triplicates, with error bars indicating SEM. Responses were normalized to vehicle-treated controls (0%) and 0.5 μM forskolin-treated controls (100%). Source data are available online for this figure.
To further validate whether these specific residues in NPFFR1 affect ligand selectivity, we generated a triple mutant of NPFFR1, in which residues Q37^Nt, I293^6.58, and T307^7.31 of NPFFR1 were replaced by the corresponding NPFFR2 residues, Leu, Ser, and Asn, respectively (Appendix Fig. S10). […]
HEK293T cells were seeded at a density of 6 × 10^5 cells per well in a six-well cell culture plate (SPL) and co-transfected with expression plasmids encoding GloSensor™ and each NPFFR construct, using 1 µg to 4 µg of DNA per well according to the Lipofectamine™ 2000 Transfection Reagent (Invitrogen) protocol. […] Luminescence signals were measured using a Mithras LB940 instrument (Berthold) with a measurement time of 1 s per well.
as §2, with “Results are presented as mean ± SEM from three independent biological replicates, each performed in duplicate or more. Error bars represent the SEM.” left out, “Significance levels were reported as follows: ns (not significant, P > 0.05); *P < 0.05; **P < 0.01; ***P < 0.001.” left out

[5] = target: NPFFR1 mutant (Q37^NtL, I293^6.58S, and T307^7.31N) (UniProt Q9GZQ6 1-430, Q37^NtL | I293^6.58S | T307^7.31N); test: cell-based or functional assay
[6] = target: T4, human Neuropeptide FF Receptor 2 (8-420) (human, UniProt Q9Y5X5-2 8-420); test: cryo-EM structure; purified NPFFR2, Gi heterotrimer and scFv16 mixed 1:1.5:2 with 0.01 mM hNPSF, HRV3C protease and apyrase, overnight at 4 °C; M1 anti-FLAG column and SEC in 20 mM Tris-Cl pH 8.0, 150 mM NaCl, LMNG/CHS, 100 nM hNPSF; global resolution 3.2 Å; details: both partners purified
T4 construct: human NPFFR2, residues 8-420; GFP tag cut off with HRV3C protease while the complex was assembled; the 8xHis tag follows GFP; In the final model the N-terminal 24 residues and the residues beyond 348 are missing; also called NPFFR2; NPFF receptor 2; source: Sf9, purified (Ni-NTA; in LMNG/CHS); not shown: FLAG, N-terminal, kept; GFP, C-terminal, cleaved; His8, C-terminal, cleaved
T4 sequence (Q9Y5X5 110-522): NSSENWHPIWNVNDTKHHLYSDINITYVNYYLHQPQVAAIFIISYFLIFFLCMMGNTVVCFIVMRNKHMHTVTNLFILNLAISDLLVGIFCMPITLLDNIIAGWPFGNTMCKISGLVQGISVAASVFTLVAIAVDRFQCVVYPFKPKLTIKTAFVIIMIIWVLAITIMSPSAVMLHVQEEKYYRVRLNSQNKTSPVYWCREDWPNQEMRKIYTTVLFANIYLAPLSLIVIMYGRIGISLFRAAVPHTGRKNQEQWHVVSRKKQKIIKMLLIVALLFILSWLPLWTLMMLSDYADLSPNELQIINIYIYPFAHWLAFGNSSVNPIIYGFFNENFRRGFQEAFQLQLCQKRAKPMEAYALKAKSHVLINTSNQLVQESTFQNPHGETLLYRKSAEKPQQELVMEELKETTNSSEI

T2 sequence (Q9GZQ6 whole entry): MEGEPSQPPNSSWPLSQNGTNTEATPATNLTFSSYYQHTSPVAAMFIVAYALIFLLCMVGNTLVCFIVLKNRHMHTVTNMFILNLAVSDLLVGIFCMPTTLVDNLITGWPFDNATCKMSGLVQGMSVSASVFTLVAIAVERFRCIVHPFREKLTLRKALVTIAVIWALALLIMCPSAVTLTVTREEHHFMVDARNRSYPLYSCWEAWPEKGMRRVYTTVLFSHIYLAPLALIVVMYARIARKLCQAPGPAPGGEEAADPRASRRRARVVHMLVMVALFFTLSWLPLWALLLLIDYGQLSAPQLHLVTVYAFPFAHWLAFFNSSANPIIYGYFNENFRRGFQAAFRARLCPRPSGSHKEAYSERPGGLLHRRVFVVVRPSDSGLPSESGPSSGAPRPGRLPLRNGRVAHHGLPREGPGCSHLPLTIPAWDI
T1 sequence (Q9Y5X5 103-522): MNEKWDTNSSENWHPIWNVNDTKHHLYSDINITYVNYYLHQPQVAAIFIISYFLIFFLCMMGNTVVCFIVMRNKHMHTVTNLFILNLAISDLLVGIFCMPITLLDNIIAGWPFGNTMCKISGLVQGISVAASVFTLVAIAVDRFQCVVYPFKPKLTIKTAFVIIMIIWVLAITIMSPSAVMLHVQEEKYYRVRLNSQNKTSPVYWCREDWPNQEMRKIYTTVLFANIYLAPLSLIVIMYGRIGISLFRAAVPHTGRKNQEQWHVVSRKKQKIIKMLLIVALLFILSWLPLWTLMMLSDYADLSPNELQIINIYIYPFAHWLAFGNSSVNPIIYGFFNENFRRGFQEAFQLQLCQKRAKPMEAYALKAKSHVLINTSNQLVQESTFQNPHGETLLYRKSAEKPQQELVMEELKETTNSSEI
T3 sequence (Q9GZQ6 whole entry Q37L/I293S/T307N): as the sequence (Q9GZQ6 whole entry) above, with Q37L, I293S, T307N counted along it
Sequence of NPFFR1 mutant (Q37^NtL, I293^6.58S, and T307^7.31N) (UniProt Q9GZQ6) (Q9GZQ6 other isoform, or with tags, fused parts or gaps mutant): as the sequence (Q9GZQ6 whole entry) above, with Q37L, I293S, T307N counted along it
Sequence of NPFFR1 mutant (Q37^NtL, I293^6.58S, and T307^7.31N) (UniProt Q9GZQ6 1-430, Q37^NtL | I293^6.58S | T307^7.31N) (Q9GZQ6 other isoform, or with tags, fused parts or gaps with the stated changes): as the sequence (Q9GZQ6 whole entry) above, with Q37L, I293S, T307N counted along it

- Emax [1]: 78 ± 3%
- EC50 [1]: 631 nM
Molecule: CC(C)C[C@H](NC(=O)[C@H](CC(N)=O)NC(=O)[C@@H]1CCCN1C(=O)[C@@H](N)C(C)C)C(=O)N1CCC[C@H]1C(=O)N[C@@H](CCC(N)=O)C(=O)N[C@@H](CCCNC(=N)N)C(=O)N[C@@H](Cc1ccccc1)C(N)=O [NPVF]

Molecule: AGEGLNSQFWSLAAPQRF-NH2 [NPAF]
- Emax [1]: 80 ± 2%
- EC50 [1]: 6.31 nM
- EC50 [2]: 200 nM
- Emax [2]: 83 ± 3%

- fold decrease in forskolin-stimulated cAMP assay (GloSensor, HEK293T): response to GnIH, against wild-type NPFFR1 [3]: 30 fold
Molecule: GnIH/RFRP-3 (peptide)

- Emax [1]: 81 ± 2%
- Emax ([2]; NPFFR1 wild-type, HEK293T, 0.5 μM forskolin, three independent experiments): 80 ± 3%
- Emax ([4]; HEK-293T): 80 ± 2%
Molecule: MPHSFANLPLRF-NH2 [GnIH] [listing 1 of 2 here]

- EC50 [1]: 158 nM
- EC50 ([2]; NPFFR1 wild-type, HEK293T, 0.5 μM forskolin, three independent experiments, read-out: pEC50 ± SEM (converted)): 3.16 nM
- EC50 [4]: 100 nM
Molecule: MPHSFANLPLRF-NH2 [GnIH] [listing 2 of 2 here]

- forskolin-stimulated cAMP assay (GloSensor, HEK293T): response to hNPSF, against wild-type NPFFR1 [5]: ~2 fold
- binding result [6]: binds
B1: human NPSF (SQAFLFQPQRF-NH2) (peptide)
peptide: SQAFLFQPQRF-NH2
notes: human form of NPSF (SQA-NPFF), an RF-amide peptide of the NPFF series; also called hNPSF; SQA-NPFF; source: synthetic peptide; bought: Cusabio (custom order)
